In patent publication US9062037B2, “Tazarotene derivatives” (Stiefel Laboratories, Inc., priority 2009, dated 2015):
Like-named read-outs stand apart in the source and are kept apart here.

Key:
in vitro = conditions: human, liver microsomes, pH 7.4, Half-life, HLM, Complete
Method: (§1) Hepatic microsomal reactions were carried out in microcentrifuge tubes in the following manner. Human liver microsomes (0.5 or 1.0 mg/ml protein), Test Article (1 or 10 μM), paraoxon (0, 10 or 100 μM), NADPH regenerating system (10 mM glucose-6-phosphate, 1 unit/ml glucose-6-phosphate dehydrogenase, 1 mM NADP^+), magnesium chloride (5 mM) in 0.1 M potassium phosphate buffer, pH 7.4 were incubated at 37° C. in a shaking water bath. Reactions were initiated with the addition of substrate with the exception of the zero-time incubations. The total reaction volume was 0.2 ml. The reactions were incubated for 15, 30, 45 or 60 minutes, terminated with 0.2 ml ice-cold acetonitrile and then placed on ice. For zero-time incubations, ice cold acetonitrile was added to the mixture containing microsomes, along with NADPH regenerating system, magnesium chloride in phosphate buffer and the Test Article. Each time point was carried out in triplicate.
(§2) Disappearance of Test Article and formation of metabolites following in vitro metabolism were determined by LC-MS/MS using multiple reaction monitoring. LightSight® software (Applied Biosystems, Foster City, Calif.) was used to generate the mass spectrometry methods and carry out the data mining.
(§3) Control incubations were carried out with the identical incubation procedures as described above with the following exceptions. In negative control reactions, microsomes were not included. […] Duplicate reactions with an initial concentration of 10 μM were incubated for 0 or 30 minutes. Microsomal metabolic stability of 7-ethoxycoumarin was determined by LC-MS/MS.

[1] = for k constant: HLM
Method: as §1, §2, §3

[2] = In vitro application of DUAC gel/TAZORAC cream mixture to split-thickness human skin; tazarotene and degradants quantified by LC/MS/MS; type: in vitro ADME; conditions: under these experimental conditions
Method: An in vitro study was conducted to assess the formation of tazarotene degradants following the application of a mixture of DUAC gel and TAZORAC cream to human skin.
Equal portions of DUAC gel and TAZORAC cream were dispensed into a glass vial and mixed for approximately three minutes with a metal spatula to ensure a homogenous mixture. Samples of European DUAC gel and US DUAC gel were used in separate experiments. […] The test mixtures were then applied to the surface of split-thickness skin (˜0.25 mm) at a dose of 15.6 mg/cm^2 and spread evenly using a positive displacement pipette.
After 2 and 6 hours, the skin samples were washed, tape stripped twice, and then the epidermis was peeled from the dermis using a heat block. The skin samples were then extracted with acetonitrile overnight at 4° C. The distribution of tazarotene and its degradants within the epidermis, dermis and surface wash were quantified by LC/MS/MS with a 50 pg/mL LOQ. The experiments were performed under yellow light conditions. For the purposes of comparison, mixtures of DUAC gel and TAZORAC cream were also prepared and retained for stability testing at 0, 2 and 6 hour time points.

Compound: CC1(C)CCSc2ccc(C#Cc3ccc(C(=O)O)cn3)cc21 [Tazarotenic acid]
- half-life at 1 µM (in vitro; 1 μM): 1.8 h
- half-life at 10 µM (in vitro; 10 μM): 2.45 h
- Test Article remaining, percent of initial concentration ([1]; 1 μM initial concentration, Complete (with NADPH), 0 min): 100%
- Test Article remaining, percent of initial concentration ([1]; 1 μM initial concentration, Complete (with NADPH), 15 min): 89.9%
- Test Article remaining, percent of initial concentration ([1]; 1 μM initial concentration, Complete (with NADPH), 30 min): 82.0%
- Test Article remaining, percent of initial concentration ([1]; 1 μM initial concentration, Complete (with NADPH), 45 min): 75.8%
- Test Article remaining, percent of initial concentration ([1]; 1 μM initial concentration, Complete (with NADPH), 60 min): 68.0%
- Test Article remaining, percent of initial concentration ([1]; 1 μM initial concentration, Without NADPH, 0 min): 100%
- Test Article remaining, percent of initial concentration ([1]; 1 μM initial concentration, Without NADPH, 15 min): 100%
- Test Article remaining, percent of initial concentration ([1]; 1 μM initial concentration, Without NADPH, 30 min): 101%
- Test Article remaining, percent of initial concentration ([1]; 1 μM initial concentration, Without NADPH, 45 min): 102%
- Test Article remaining, percent of initial concentration ([1]; 1 μM initial concentration, Without NADPH, 60 min): 101%
- Test Article remaining, percent of initial concentration ([1]; 10 μM initial concentration, Complete (with NADPH), 0 min): 100%
- Test Article remaining, percent of initial concentration ([1]; 10 μM initial concentration, Complete (with NADPH), 15 min): 93.1%
- Test Article remaining, percent of initial concentration ([1]; 10 μM initial concentration, Complete (with NADPH), 30 min): 88.6%
- Test Article remaining, percent of initial concentration ([1]; 10 μM initial concentration, Complete (with NADPH), 45 min): 77.8%
- Test Article remaining, percent of initial concentration ([1]; 10 μM initial concentration, Complete (with NADPH), 60 min): 77.4%
- Test Article remaining, percent of initial concentration ([1]; 10 μM initial concentration, Without NADPH, 0 min): 100%
- Test Article remaining, percent of initial concentration ([1]; 10 μM initial concentration, Without NADPH, 15 min): 102%
- Test Article remaining, percent of initial concentration ([1]; 10 μM initial concentration, Without NADPH, 30 min): 99.0%
- Test Article remaining, percent of initial concentration ([1]; 10 μM initial concentration, Without NADPH, 45 min): 106%
- Test Article remaining, percent of initial concentration ([1]; 10 μM initial concentration, Without NADPH, 60 min): 102%
- k constant ([1]; 1 μM, Complete): −0.0064
- k constant ([1]; 1 μM, Without NADPH): 0.0003
- k constant ([1]; 10 μM, Complete): −0.0047
- k constant ([1]; 10 μM, Without NADPH): 0.0006
- metabolized by human liver microsomes ([1]; in the absence of NADPH): not metabolized
- metabolized by human liver microsomes to tazarotenic acid sulfoxide ([1]; in the presence of NADPH): slowly metabolized
- detection of tazarotenic acid [2]: not detected
